From the supplement of paper PMC10307832

Assays:
Assay in all cases: relative viability (nuclei count vs DMSO), 5 days (fraction); higher = more cells survive
AZ505 = compound: C1CCC(CC1)N(CCNCCC2=C3C(=C(C=C2)O)NC(=O)CO3)C(=O)CCNCCC4=CC(=C(C=C4)Cl)Cl [AZ505]
In short: (§1)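 Five library-drug doses spaced by √10 were pinned onto vehicle-anchored 1536-well plates of lung cancer cell lines that had been kept overnight at 37 °C. Cells went 5 days without medium change, then were fixed, permeabilised and Hoechst-stained together, imaged at 4× and counted by MetaXpress. Viability is the ratio of treated-well to vehicle-well nuclei, taken as a median over plates. Plates required control CV below 25% and at least one doubling.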

Dactolisib = compound: Cn1c(=O)n(-c2ccc(C(C)(C)C#N)cc2)c2c3cc(-c4cnc5ccccc5c4)ccc3ncc21 [Dactolisib]
In short: as §1

AZ505 + Navitoclax = compound: C1CCC(CC1)N(CCNCCC2=C3C(=C(C=C2)O)NC(=O)CO3)C(=O)CCNCCC4=CC(=C(C=C4)Cl)Cl [AZ505] + CC1(C)CCC(c2ccc(Cl)cc2)=C(CN2CCN(c3ccc(C(=O)NS(=O)(=O)c4ccc(N[C@H](CCN5CCOCC5)CSc5ccccc5)c(S(=O)(=O)C(F)(F)F)c4)cc3)CC2)C1 [Navitoclax] (partner 0.5 µM)
In short: (§2)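 Relative viability is defined as nuclei in treated wells over nuclei in vehicle wells. Duplicate plates were run and medians reported. Lung cancer cell lines in 1536-well plates were dosed by pin tool one day after seeding, with one drug or with a fixed anchor-drug dose plus five library-drug doses (not always all listed) in √10 steps, and nuclei were counted after 5 days.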

Dactolisib + Phenformin = compound: Cn1c(=O)n(-c2ccc(C(C)(C)C#N)cc2)c2c3cc(-c4cnc5ccccc5c4)ccc3ncc21 [Dactolisib] + N=C(N)NC(=N)NCCc1ccccc1 [Phenformin] (partner 250 µM)
In short: as §2

Cell Line | relative viability (AZ505; 0.08 µM) | relative viability (AZ505; 0.253 µM) | relative viability (AZ505; 0.8 µM) | relative viability (AZ505; 2.53 µM) | relative viability (AZ505; 8 µM) | relative viability (Dactolisib; 0.002 µM) | relative viability (Dactolisib; 0.006325 µM) | relative viability (Dactolisib; 0.02 µM) | relative viability (Dactolisib; 0.06325 µM) | relative viability (Dactolisib; 0.2 µM) | relative viability (AZ505 + Navitoclax; first compound 0.08 µM) | relative viability (AZ505 + Navitoclax; first compound 0.253 µM) | relative viability (AZ505 + Navitoclax; first compound 0.8 µM) | relative viability (AZ505 + Navitoclax; first compound 2.53 µM) | relative viability (AZ505 + Navitoclax; first compound 8 µM) | relative viability (Dactolisib + Phenformin; first compound 0.002 µM) | relative viability (Dactolisib + Phenformin; first compound 0.006325 µM) | relative viability (Dactolisib + Phenformin; first compound 0.02 µM) | relative viability (Dactolisib + Phenformin; first compound 0.06325 µM) | relative viability (Dactolisib + Phenformin; first compound 0.2 µM)
BEN | 0.873 | 0.97 | 0.905 | 1.1 | 1.05 | 1.02 | 0.883 | 0.81 | 0.536 | 0.366 | 0.078 | 0.0642 | 0.0775 | 0.0686 | 0.0829 | 0.231 | 0.263 | 0.245 | 0.248 | 0.237
EMC-BAC-2 | 0.948 | 0.789 | 0.923 | 1.03 | 0.987 | 1.07 | 0.924 | 0.88 | 0.636 | 0.494 | 1.12 | 1.26 | 1.15 | 1.14 | 1.27 | 0.51 | 0.529 | 0.519 | 0.336 | 0.251
LU99A | 0.782 | 1.02 | 0.979 | 0.813 | 0.944 | 0.93 | 0.904 | 0.766 | 0.429 | 0.31 | 0.745 | 0.814 | 0.839 | 0.894 | 0.749 | 0.871 | 0.761 | 0.682 | 0.443 | 0.258
NCI-H2170 | 0.953 | 1.01 | 0.932 | 0.998 | 0.976 | 1.02 | 0.971 | 0.96 | 0.648 | 0.447 | 0.541 | 0.665 | 0.531 | 0.666 | 0.651 | 0.454 | 0.433 | 0.48 | 0.434 | 0.284
NCI-H2347 | 0.643 | 0.759 | 0.738 | 0.589 | 0.833 | 1.27 | 0.971 | 0.958 | 0.771 | 0.517 | 0.434 | 0.549 | 0.564 | 0.482 | 0.631 | 0.731 | 0.409 | 0.381 | 0.329 | 0.264
NCI-H1993 | 0.871 | 0.888 | 0.903 | 1.02 | 1.09 | 1.01 | 0.702 | 0.663 | 0.59 | 0.603 | 0.859 | 0.911 | 0.86 | 1.01 | 0.917 | 0.486 | 0.509 | 0.518 | 0.5 | 0.572
NCI-H322M | 0.906 | 0.824 | 0.954 | 0.826 | 1.02 | 1.04 | 0.931 | 0.734 | 0.702 | 0.579 | 1.18 | 1.1 | 1.16 | 1.1 | 1.28 | 0.822 | 0.745 | 0.713 | 0.617 | 0.485
NCI-H838 | 0.915 | 0.976 | 0.948 | 0.942 | 0.998 | 0.978 | 0.775 | 0.659 | 0.347 | 0.296 | 1.12 | 1.13 | 1.13 | 1.11 | 1.11 | 0.628 | 0.423 | 0.267 | 0.201 | 0.175
HARA | 0.792 | 0.758 | 0.915 | 0.873 | 0.847 | 1.08 | 0.982 | 0.928 | 0.601 | 0.369 | 1.14 | 1.12 | 1.12 | 1.07 | 1.08 | 0.467 | 0.441 | 0.51 | 0.405 | 0.211
NCI-H2087 | 0.883 | 0.987 | 0.978 | 0.996 | 0.982 | 1.38 | 1.22 | 1.07 | 0.657 | 0.437 | 1.01 | 0.975 | 1.05 | 0.989 | 0.873 | 0.622 | 0.454 | 0.378 | 0.286 | 0.123
NCI-H1437 | 0.977 | 1 | 0.983 | 1.01 | 0.991 | 1.01 | 0.991 | 1.03 | 0.914 | 0.741 | 1.03 | 1.14 | 1.06 | 1.07 | 1.08 | 0.27 | 0.341 | 0.323 | 0.296 | 0.289
NCI-H1792 | 0.757 |  | 0.803 | 0.947 | 0.945 | 1.04 | 0.635 | 0.551 | 0.317 | 0.175 | 0.61 | 0.637 | 0.592 | 0.653 | 0.719 | 0.249 | 0.172 | 0.262 | 0.101 | 0.0814
ChaGo-K-1 | 0.959 | 1 | 1.05 | 1.01 | 1.12 | 0.963 | 0.964 | 0.945 | 0.909 | 0.868 | 1.02 | 0.856 | 1.04 | 1.14 | 1.07 | 0.457 | 0.457 | 0.464 | 0.374 | 0.444
COR-L23 | 0.947 | 0.97 | 0.893 | 0.933 | 0.95 | 1.15 | 1.06 | 0.911 | 0.27 | 0.249 | 0.893 | 1.01 | 0.877 | 0.833 | 0.928 | 0.508 | 0.417 | 0.429 | 0.229 | 0.159
COR-L 105 | 0.89 | 0.918 | 0.887 | 0.851 | 1.01 | 0.959 | 0.898 | 0.781 | 0.363 | 0.425 | 0.772 | 0.692 | 0.83 | 0.844 | 0.778 | 0.494 | 0.489 | 0.432 | 0.256 | 0.259
